We go through one molecule from paper PMC4005005 (ChemMedChem, 2014).

SMILES strings stand for the structures. Some results are limits rather than exact numbers.

The test has as its target T1, G9a (Homo sapiens, UniProt Q96KQ7).
T1 sequence (Q96KQ7 2-1210): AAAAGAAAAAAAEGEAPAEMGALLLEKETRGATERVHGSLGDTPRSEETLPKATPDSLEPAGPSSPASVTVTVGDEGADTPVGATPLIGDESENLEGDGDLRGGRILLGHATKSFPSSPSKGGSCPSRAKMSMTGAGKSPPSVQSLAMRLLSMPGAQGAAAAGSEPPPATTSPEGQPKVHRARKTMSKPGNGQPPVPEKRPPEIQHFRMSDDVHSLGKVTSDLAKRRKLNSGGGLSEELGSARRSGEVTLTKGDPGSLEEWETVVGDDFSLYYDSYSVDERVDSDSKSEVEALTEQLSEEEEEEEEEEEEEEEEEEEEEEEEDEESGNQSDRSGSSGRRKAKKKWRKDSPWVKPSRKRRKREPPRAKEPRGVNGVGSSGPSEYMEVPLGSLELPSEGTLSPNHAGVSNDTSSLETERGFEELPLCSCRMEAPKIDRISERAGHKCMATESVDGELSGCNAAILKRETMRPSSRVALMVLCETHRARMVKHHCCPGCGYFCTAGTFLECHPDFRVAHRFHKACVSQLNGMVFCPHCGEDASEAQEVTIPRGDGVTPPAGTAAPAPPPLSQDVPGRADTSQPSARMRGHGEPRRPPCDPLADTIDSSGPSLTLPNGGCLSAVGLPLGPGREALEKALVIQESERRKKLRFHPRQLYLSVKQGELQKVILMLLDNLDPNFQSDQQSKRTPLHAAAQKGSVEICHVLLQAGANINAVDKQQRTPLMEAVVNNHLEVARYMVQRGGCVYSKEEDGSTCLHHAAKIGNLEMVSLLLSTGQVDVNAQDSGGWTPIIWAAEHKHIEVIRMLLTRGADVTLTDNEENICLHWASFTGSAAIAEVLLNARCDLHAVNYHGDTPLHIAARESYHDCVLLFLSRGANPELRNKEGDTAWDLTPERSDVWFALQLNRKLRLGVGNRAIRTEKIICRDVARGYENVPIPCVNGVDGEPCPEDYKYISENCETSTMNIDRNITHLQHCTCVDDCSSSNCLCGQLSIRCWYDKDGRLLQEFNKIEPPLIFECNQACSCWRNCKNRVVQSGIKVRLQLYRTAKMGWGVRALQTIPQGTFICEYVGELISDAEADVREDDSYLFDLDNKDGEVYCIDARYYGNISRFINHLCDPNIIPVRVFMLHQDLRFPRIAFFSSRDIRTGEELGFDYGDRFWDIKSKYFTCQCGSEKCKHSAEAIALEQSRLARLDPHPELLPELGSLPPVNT
The test is described as follows: scintillation proximity assay of 3H-methyl transfer to histone peptide. The format is biochemical. (In general: Scintillation proximity formats need no separation of bound from free tracer.)

For the molecule `COc1cc2c(NC3CCN(CCCc4cn(CCOCCOCCOCCNC(=O)CCCC[C@H]5SC[C@H]6NC(=O)N[C@H]65)nn4)CC3)nc(C3CCCCC3)nc2cc1OCCCN1CCCC1` [compound 10, UNC0965], the IC50 is less than 2.5 nM.

By IC50 is commonly meant the concentration that gives 50% inhibition. A high value points to weaker potency in that assay.
